According to ChEMBL document CHEMBL1151478, “ent-Kaurane diterpenoids from Isodon scoparius” (J Nat Prod, 2009):
pIC50: −log10 of the molar value.

How the values were obtained:
Assay type in all cases: functional, cell-based
MCF7 = experiment: Cytotoxicity against human MCF7 cells after 48 hrs by WST-8 assay; conditions: MCF7, 48 h
SH-SY5Y = experiment: Cytotoxicity against human SH-SY5Y cells after 48 hrs by WST-8 assay
A549 = experiment: Cytotoxicity against human A549 cells after 48 hrs by WST-8 assay; conditions: A549, 48 h
PC-3 = experiment: Cytotoxicity against human PC3 cells after 48 hrs by WST-8 assay; conditions: PC-3, 48 h
NB-4 = experiment: Cytotoxicity against human NB4 cells after 48 hrs by WST-8 assay; conditions: NB-4, 48 h

Structure (SMILES)	pIC50 (MCF7)	pIC50 (SH-SY5Y)	pIC50 (A549)	pIC50 (PC-3)	pIC50 (NB-4)
CC(=O)CC[C@H]1C(=O)[C@@]23[C@H](O)C[C@@H]4[C@@](C)(CO)CCC[C@@]4(C)[C@@H]2C(=O)[C@H](O)[C@H]1[C@H]3O	< 5.00	< 5.00	< 5.00	< 5.00	< 5.00
COc1cc([C@@H]2c3cc4c(cc3[C@@H](O[C@@H]3O[C@@H]5CO[C@@H](C)O[C@H]5[C@H](O)[C@H]3O)[C@H]3COC(=O)[C@H]23)OCO4)cc(OC)c1O [ETOPOSIDE]	–	5.77	5.77	4.87	5.89
C=C1C(=O)[C@@]23[C@H](O)C[C@@H]4C(C)(C)CC[C@H](O)[C@@]4(C)[C@@H]2C[C@H](O)[C@@H]1[C@H]3O [EXCISANIN A]	< 5.00	< 5.00	< 5.00	< 5.00	5.09
C=C1C(=O)[C@@]23CC[C@@H]4[C@@](C)(CO)CC[C@H](O)[C@@]4(C)[C@@H]2CC[C@@H]1[C@H]3O [EXCISANIN K]	< 5.00	< 5.00	< 5.00	< 5.00	5.06
C=C1C(=O)[C@@]23[C@H](O)C[C@@H]4[C@@](C)(CO)CCC[C@@]4(C)[C@@H]2C(=O)C[C@@H]1[C@H]3O [HENRYINE A]	< 5.00	5.29	< 5.00	5.15	5.64
CC1(C)CCC[C@]2(C)[C@@H]1C[C@@H](O)[C@@]13C(=O)[C@@]4(CO4)[C@@H]([C@H]1O)[C@@H](O)C(=O)[C@@H]23 [ISOSCOPARIN D]	< 5.00	< 5.00	< 5.00	< 5.00	< 5.00
C=C1[C@@H]2[C@@H](O)[C@H](O)[C@H]3[C@]4(C)CCCC(C)(C)[C@H]4CC(=O)[C@@]3([C@@H]1OC(C)=O)[C@@H]2O [ISOSCOPARIN F]	5.41	5.04	5.00	< 5.00	5.66
C=C1[C@@H](O)[C@@]23[C@H](O)C[C@@H]4[C@@](C)(CO)CCC[C@@]4(C)[C@@H]2C(=O)C[C@@H]1[C@H]3O [ISOSCOPARIN H]	< 5.00	< 5.00	< 5.00	< 5.00	< 5.00
C=C1C(=O)[C@@]23[C@H](O)C[C@H]4[C@@](C)(CCC[C@]4(C)C=O)[C@@H]2[C@@H](O)C[C@@H]1[C@H]3O [ISOSCOPARIN I]	< 5.00	< 5.00	< 5.00	< 5.00	5.36
C=C1C(=O)[C@@]23[C@H](O)C[C@@H]4C(C)(C)CCC[C@@]4(C)[C@@H]2C[C@H](O)[C@@H]1[C@H]3O [ISOSCOPARIN L]	5.66	5.17	5.19	< 5.00	6.15
C=C1C(=O)[C@@]23[C@H](O)C[C@@H]4C(C)(C)CC[C@H](O)[C@@]4(C)[C@@H]2CC[C@@H]1[C@H]3O [KAMEBANIN]	5.08	5.05	5.14	< 5.00	6.05
C=C1[C@@H](O)[C@]23[C@H](O)[C@H]1CC[C@H]2[C@@]12CO[C@@]3(O)[C@@H](O)[C@@H]1C(C)(C)CC[C@@H]2OC(C)=O [LASIOKAURINOL]	< 5.00	< 5.00	< 5.00	< 5.00	< 5.00
CC(=O)O[C@H]1C(=O)[C@@]2(C)[C@H]([C@H](OC(=O)c3ccccc3)[C@]3(O)C[C@H](OC(=O)[C@H](O)[C@@H](NC(=O)c4ccccc4)c4ccccc4)C(C)=C1C3(C)C)[C@]1(OC(C)=O)CO[C@@H]1C[C@@H]2O [PACLITAXEL]	7.00	6.70	7.00	6.70	7.00
C=C1C(=O)[C@@]23[C@H](O)C[C@@H]4C(C)(C)CCC[C@@]4(C)[C@@H]2C(=O)[C@H](O)[C@@H]1[C@H]3O [PHYLLOSTACHYSIN D]	< 5.00	< 5.00	< 5.00	< 5.00	6.52
C=C1C(=O)[C@@]23CC[C@@H]4C(C)(C)CC[C@H](O)[C@@]4(C)[C@@H]2[C@@H](O)C[C@@H]1[C@H]3O [PHYLLOSTACHYSIN H]	< 5.00	< 5.00	< 5.00	< 5.00	< 5.00
C=C1C(=O)[C@@]23[C@H](O)C[C@@H]4C(C)(C)CC[C@H](O)[C@@]4(C)[C@@H]2[C@@H](O)C[C@@H]1[C@H]3O [RABDOINFLEXIN B]	< 5.00	< 5.00	< 5.00	< 5.00	< 5.00
C=C1C(=O)[C@@]23[C@H](O)C[C@@H]4C(C)(C)CCC[C@@]4(C)[C@@H]2[C@@H](O)[C@H](O)[C@@H]1[C@H]3OC(C)=O [RABDOKUNMIN A]	< 5.00	< 5.00	5.55	< 5.00	5.57
C=C1C(=O)[C@@]23[C@H](O)C[C@@H]4[C@@](C)(CO)CCC[C@@]4(C)[C@@H]2C[C@H](O)[C@@H]1[C@H]3O [RABDOKUNMIN C]	< 5.00	< 5.00	< 5.00	< 5.00	< 5.00
C=C1C(=O)[C@@]23[C@H](O)C[C@@H]4[C@@](C)(CO)CCC[C@@]4(C)[C@@H]2[C@@H](O)C[C@@H]1[C@H]3O [RABDOKUNMIN D]	< 5.00	< 5.00	< 5.00	< 5.00	< 5.00
C=C1C(=O)[C@@]23[C@H](O)C[C@@H]4[C@@](C)(CO)CCC[C@@]4(C)[C@@H]2C(=O)[C@H](O)[C@@H]1[C@H]3O [RABDOLOXIN A]	< 5.00	< 5.00	< 5.00	< 5.00	< 5.00
C=C1C(=O)[C@@]23[C@H](O)C[C@@H]4C(C)(C)CCC[C@@]4(C)[C@@H]2[C@@H](O)[C@H](O)[C@@H]1[C@H]3O [RABDOLOXIN B]	< 5.00	< 5.00	5.77	< 5.00	5.55
